Measurements published in patent US4374149A, “α-{[(Arylalkyl)amino]alkyl}-4-hydroxy-3-(lower-alkylsul finyl)benzenemethanols” (Sterling Drug Inc., priority 1978, dated 1983).
Where a name gives a salt, the structure may show the parent alone.

Columns and labels:
systolic blood pressure = assay: Antihypertensive activity, reduction in systolic blood pressure, single oral medication, unanesthetized spontaneous hypertensive rat; type: in vivo; settings: P.O.; for Antihypertensive activity SH Rat AHD40 (single oral dose required to induce a 40 mm. average reduction in systolic blood pressure): unanesthetized SH rat
Description: Antihypertensive activity was determined on the basis of the observed reduction in systolic blood pressure measured according to the method of H. Kersten et al., J. Lab. and Clin. Med. 32, 1090 (1947) following a single oral medication in the unanesthetized spontaneous hypertensive rat described by Okamato et al., Japan Circulation J. 27, 282 (1963).
^a AHD40 = single oral dose required to induce a 40 mm. average

hind limb vasculature = assay: Vasodilator activity, perfusion pressure in hind limb vasculature of anesthetized dog; type: in vivo; settings: for Vasodilator activity Dog-Leg Perfusion AED50 (approximate intraarterial dose for 50 reduction in perfusion pressure): anesthetized dog hind limb, acetate salt; for Actual percentage reduction in perfusion pressure observed at the indicated dose: 0.025 mg./kg. intraarterial
Source text: (§1) Vasodilator activity was judged on the basis of observed reduction in perfusion pressure in the hind limb vasculature of the anesthetized dog determined according to the procedure described by Jandhyala et al., European J. Pharm. 17, 357 (1972), and also on the basis of percent reduction in perfusion pressure as measured in the isolated rabbit ear artery according to the method described by De LaLande et al., Aust. J. Exp. Biol. Med. Sci. 43, 639 (1965).
^c AED50 = approximate intraarterial dose required to cause a 50

[1] = system: isolated rabbit ear artery; assay: Vasodilator activity, perfusion pressure in isolated rabbit ear artery
Source text: as §1
^d Vasodilation is expressed as the percentage reduction in perfusion

β-adrenergic = β-adrenergic blocking activity, inhibition of isoproterenol-elicited heart rate increase in pentobarbitalized dog; type: in vivo; settings: i.v., pentobarbitalized dog
Description: The β-adrenergic blocking activity was determined in the pentobarbitalized dog as judged by the ability of the test compound to inhibit the elevation in heart rate elicited by a 0.5 mcg./kg. i.v. injection of isoproterenol.
^e AED50 = approximate intravenous dose required to cause 50%

blood pressure = assay: Antihypertensive activity, sustained lowering of blood pressure, repeated oral medication, unanesthetized trained renal hypertensive dog; type: in vivo; settings: tid., hydrochloride; for Actual percentage reduction in blood pressure observed at the indicated dose: 0.5 mg./kg.
Source text: Antihypertensive activity was also judged on the basis of sustained reduction of blood pressure observed in the unanesthetized trained renal hypertensive dog following repeated oral medication according to the procedure described by Lape et al., Arch.
^b MED10 = minimum repeated oral daily dose required to effect a

[2] = 5 × 10^-5 M, 50 µM, acetate salt
[3] = 1 × 10^-4 M, 100 µM, hydrochloride

Compound | Actual reduction in blood pressure observed at the indicated dose (systolic blood pressure; 20 mg./kg.) [mm. Hg] | Antihypertensive activity SH Rat AHD40 (single oral dose required to induce a 40 mm. average reduction in systolic blood pressure) (systolic blood pressure; acetate salt) [mg/kg] | Vasodilator activity Dog-Leg Perfusion AED50 (approximate intraarterial dose for 50 reduction in perfusion pressure) (hind limb vasculature) [mg/kg] | Rabbit Ear Artery vasodilation (percentage reduction in perfusion pressure from control level) ([1]; 1 × 10^-4 M, 100 µM, acetate salt) [%] | Dog β-blockade AED50 (approximate intravenous dose for 50% inhibition of isoproterenol-elicited heart rate increase) (β-adrenergic; acetate salt) [mg/kg] | Actual percentage reduction in perfusion pressure observed at the indicated dose (hind limb vasculature) [%] | Rabbit Ear Artery vasodilation (percentage reduction in perfusion pressure from control level) [1, 2] [%] | Actual reduction in blood pressure observed at the indicated dose (systolic blood pressure; 16.0 mg./kg., hydrochloride) [mm. Hg] | Antihypertensive activity SH Rat AHD40 (single oral dose required to induce a 40 mm. average reduction in systolic blood pressure) (systolic blood pressure; hydrochloride) [mg/kg] | Actual percentage reduction in blood pressure observed at the indicated dose (blood pressure) [%] | Renal Hypertensive Dog MED10 (minimum repeated oral daily dose for sustained lowering of blood pressure of 10% or greater) (blood pressure) [mg/kg] | Rabbit Ear Artery vasodilation (percentage reduction in perfusion pressure from control level) [1, 3] [%] | Dog β-blockade AED50 (approximate intravenous dose for 50% inhibition of isoproterenol-elicited heart rate increase) (β-adrenergic; hydrochloride) [mg/kg] | Rabbit Ear Artery vasodilation (percentage reduction in perfusion pressure from control level) ([1]; 2 × 10^-4 M, 200 µM) [%]
COc1ccc(CCC(C)NCC(O)c2ccc(O)c([S+](C)[O-])c2)cc1 (stereo not drawn) [Example 4C, 4-hydroxy-α-<{[3-(4-methoxyphenyl)-1-methylpropyl]amino}methyl>-3-(methylsulfinyl)benzenemethanol acetate salt] | -33 | > 20.0 | 0.5 | 10 | ~0.5 | – | – | – | – | – | – | – | – | –
COc1ccc(CCC(C)NCC(O)c2ccc(O)c([S+](C)[O-])c2)cc1 (stereo not drawn) [Example 9D, 4-hydroxy-α-<{[3-(4-methoxyphenyl)-1-methylpropyl]amino}methyl>-3-(methylsulfinyl)benzenemethanol acetate salt] | – | 20.0 | > 0.025 | – | 0.0125 | 25 | 61 | – | – | – | – | – | – | –
COc1ccc(CCC(C)NCC(O)c2ccc(O)c([S+](C)[O-])c2)cc1 (stereo not drawn) [Example 6E, 4-hydroxy-α-<{[3-(4-methoxyphenyl)-1-methylpropyl]amino}methyl>-3-(methylsulfinyl)benzenemethanol acetate salt] | – | 15.0 | > 0.025 | – | 0.25 | 25 | 58 | – | – | – | – | – | – | –
COc1ccc(CCC(C)NCC(O)c2ccc(O)c([S+](C)[O-])c2)cc1 (single isomer, unassigned) [Example 11, 4-hydroxy-α-<{[3-(4-methoxyphenyl)-1-methylpropyl]amino}methyl>-3-(methylsulfinyl)benzenemethanol hydrochloride] | – | – | – | – | – | – | – | -14 | > 16.0 | 14 | < 0.5 | 38 | 0.25 | –
COc1ccc(CCC(C)NCC(O)c2ccc(O)c([S+](C)[O-])c2)cc1 (single isomer, unassigned) [Example 13C, 4-hydroxy-α-<{[3-(4-methoxyphenyl)-1-methylpropyl]amino}methyl>-3-(methylsulfinyl)benzenemethanol hydrochloride] | – | – | – | – | – | – | – | – | 3 | 17 | < 0.5 | 50 | 0.0125 | –
COc1ccc(CCC(C)NCC(O)c2ccc(O)c([S+](C)[O-])c2)cc1 (single isomer, unassigned) [Example 12, 4-hydroxy-α-<{[3-(4-methoxyphenyl)-1-methylpropyl]amino}methyl>-3-(methylsulfinyl)benzenemethanol hydrochloride] | – | – | – | – | – | – | – | – | 5 | 14 | < 0.5 | – | 0.05 | 50
